Assay results taken from patent US5444042A, “Method of treatment of neurodegeneration with calpain inhibitors” (Cortex Pharmaceuticals, priority 1994, dated 1995).
Where a SMILES comes first, the peptide text is derived from it. The star is where a group is joined. CH2Cl = ClC*

Columns and labels:
Calpain II = Calpain II KI (Table 1B(ii)); assay type: biochemical
Text: (§1) We tested the ability of an additional group of Peptide Keto-Compounds to inhibit several proteases in order to evaluate their specificity for Calpain.

Chym = Chym (Bos taurus, UniProt P00766); assay: Chym KI (Table 1B(ii)); assay type: biochemical
Text: as §1

PP Elastase = PP Elastase (Sus scrofa, UniProt P00772); assay: PP Elastase KI (Table 1B(ii)); assay type: biochemical
Text: as §1

Stability in plasma = assay type: in vitro ADME; settings: unit assumed
Text: We determined the haft-life of several Peptide Keto-Compounds in both plasma and liver homogenates.

Calpain within platelets = assay: Platelet membrane permeation assay, spectrin proteolysis (Examples 4A, 4B); assay type: cell-based, rat; settings: for inhibition of Calpain within platelets: A23187 1 μM; for IC50: concentration at which 50% of the Calpain activation present in controls occurred
Experimental: Platelets were isolated by a modification of the method of Ferrell and Martin, J Biol. Chem., 264:20723-20729 (1989), the disclosure of which is hereby incorporated by reference. Blood (15-20 ml) was drawn from male Sprague-Dawley rats into 100 mM EDTA-citrate containing 10 units heparin, and centrifuged 30 minutes at 1600 rpm at room temperature. The plasma was resuspended in 15 ml buffer 1 (136 mM NaCl, 2.7 mM KCl, 0.42 mM NaH2 PO4, 12 mM NaHCO3, 2 mM MgCl2, 2 mg/ml BSA (Sigma), 5.6 mM glucose, 22 mM Na3 Citrate pH 6.5) and platelets were isolated at 2200 rpm at room temperature of 25 minutes. Platelets were resuspended to 10^7 cells/ml in buffer 2 (136 mM NaCl, 2.7 mM KCl, 0.42 NaH2 PO4, 12 mM NaHCO3, 2 mM MgCl, 1 mg/ml BSA, 5.6 mM glucose, 20 mM HEPES pH 7.4) and allowed to "rest" for a minimum of 10 minutes at room temperature before use.
Platelets were incubated for 5 minutes in the presence of inhibitor. In order to provide sufficient intracellular calcium to activate Calpain, the calcium ionophore A23187 was added to a final concentration of 1 μM. After a further 5 minute incubation, the platelets were harvested by centrifugation (1 min 10,000×g) and resuspended in 10% sodium dodecyl sulfate, 10 mM Tris pH=8.0, 5% β-mercaptoethanol, 0.02% bromophenol blue, and heated to 95° C. for 5 min. Samples were subjected to SDS-PAGE on 6% mini gels and transferred to nitrocellulose (Schleicher and Schuell BAS3) for 2 hours at 100 mA/gel in an LKB Novablot. Filters were blocked for 10 minutes in 0.25% gelatin, 1% BSA, 0.25% Triton X100, 0.9% NaCl, 10 mM Tris-Cl pH 7.5, incubated overnight in the same solution containing antibody to rat spectrin, washed 3×10 minutes with 10 mM Tris-Cl pH 7.5, 0.5 % Triton X100, incubated 4 hours in wash buffer plus alkaline phosphatase conjugated goat anti-rabbit antibody (Biorad), and washed as above. Filters were developed using the Biorad AP conjugate substrate kit. Spectrin immunoreactivity on the filters was quantitated by densitometry.

[1] = system: Calpain in crude brain extracts; assay: Ca2+-stimulated spectrin proteolysis in crude brain extracts (Example 2); assay type: biochemical; settings: 100 μM
Experimental: The activity of Calpain in crude brain extracts was measured by examining the Ca^2+ -stimulated proteolysis of the endogenous substrate spectrin. Brain tissue was homogenized in 10 mM Tris pH=7.4, 0.32M sucrose, 1 mM EGTA, 1 mM dithiothreitol and the nuclei and debris removed by low speed centrifugation. […] Proteolysis of spectrin was evaluated by western blot as described by Seubert, et at. (Brain Research, 459:226-232, 1988), the disclosure of which is hereby incorporated by reference. Briefly, a known quantity of a spectrin-containing sample treated with Calpain is separated by SDS-PAGE and immunoblotted with anti-spectrin antibody. The amount of spectrin immunoreactivity found corresponding to the characteristic BDP's is indicative of the amount of […] activity present in the sample. An examplary method for quantitating BDP's is to assay Spectrin BDP's by homogenizing brain parts in 20 mM Tris pH=7.2, 0.32M sucrose, 50 μM Ac-Leu-Leu-nLeu-H on ice. Homogenates are then mixed 1:1 with 10% SDS, 5% β-mercaptoethanol, 10% glycerol, 10 mM Tris pH=8.0, 0.5% bromophenolblue, heated to 95° C., and subjected to electrophoresis in 41/2% polyacrylamide gels. The proteins in the gels are transferred to nitrocellulose and the spectrin and BDP's detected using a rabbit polyclonal anti-spectrin antibody and established immunodetection methods. The amount of spectrin and BDP's in each sample can be quantitated by densitrometric scanning of the developed nitrocellulose.

Cathepsin B = Cathepsin B (Bos taurus, UniProt P07688); assay: Cathepsin B KI (Table 1B(ii)); assay type: biochemical; settings: read-out: KI CathB
Text: as §1

Calpain I = target: T1, Calpain I (Homo sapiens, UniProt P07384); assay: Calpain I KI (Table 1B(ii)); assay type: biochemical; settings: Table 1B(ii)
T1 sequence (P07384 1-714): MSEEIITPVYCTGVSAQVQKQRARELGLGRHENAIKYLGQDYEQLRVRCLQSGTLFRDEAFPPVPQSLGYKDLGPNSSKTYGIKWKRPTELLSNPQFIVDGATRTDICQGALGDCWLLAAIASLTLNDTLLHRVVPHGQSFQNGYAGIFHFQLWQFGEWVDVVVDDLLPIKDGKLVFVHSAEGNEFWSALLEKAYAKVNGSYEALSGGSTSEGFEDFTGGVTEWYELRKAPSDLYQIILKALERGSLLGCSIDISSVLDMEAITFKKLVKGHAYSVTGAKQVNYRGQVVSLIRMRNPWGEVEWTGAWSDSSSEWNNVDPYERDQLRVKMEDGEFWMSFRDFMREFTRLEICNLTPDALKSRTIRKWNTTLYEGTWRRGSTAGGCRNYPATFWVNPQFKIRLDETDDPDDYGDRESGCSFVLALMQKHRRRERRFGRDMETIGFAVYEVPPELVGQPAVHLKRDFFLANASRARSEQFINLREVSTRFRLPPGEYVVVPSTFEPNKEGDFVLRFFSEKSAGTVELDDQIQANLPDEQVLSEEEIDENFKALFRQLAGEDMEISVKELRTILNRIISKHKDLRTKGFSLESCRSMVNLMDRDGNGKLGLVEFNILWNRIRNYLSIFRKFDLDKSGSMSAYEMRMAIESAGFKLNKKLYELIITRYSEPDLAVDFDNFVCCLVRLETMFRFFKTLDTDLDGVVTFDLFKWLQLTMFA
T1 sequence (P04632 1-268 partner): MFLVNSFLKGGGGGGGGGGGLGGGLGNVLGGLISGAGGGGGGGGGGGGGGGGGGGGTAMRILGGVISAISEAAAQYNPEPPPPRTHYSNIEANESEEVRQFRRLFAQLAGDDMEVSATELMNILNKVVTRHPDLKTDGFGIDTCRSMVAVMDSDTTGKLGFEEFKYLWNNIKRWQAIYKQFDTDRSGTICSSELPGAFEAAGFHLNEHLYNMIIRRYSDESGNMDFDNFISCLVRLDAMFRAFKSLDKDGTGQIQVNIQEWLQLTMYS
Text: as §1

Sequence of PP Elastase (P00772 27-266): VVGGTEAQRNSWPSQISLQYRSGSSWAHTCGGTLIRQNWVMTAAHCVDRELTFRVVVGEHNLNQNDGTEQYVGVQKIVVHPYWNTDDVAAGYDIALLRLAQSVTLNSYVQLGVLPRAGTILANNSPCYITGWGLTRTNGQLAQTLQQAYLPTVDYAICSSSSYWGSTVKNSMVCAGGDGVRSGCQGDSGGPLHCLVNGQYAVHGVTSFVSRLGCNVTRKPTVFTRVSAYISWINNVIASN

With `CCOC(=O)C(=O)[C@H](CC)NC(=O)[C@H](CC(C)C)NC(=O)[C@H](CC(C)C)NC(=O)c1ccc2ccccc2c1` [2-NapCO-Leu-Leu-Abu-COOEt] the Ki (Calpain II) was 0.09 µM, the Ki (Chym) was greater than 300 µM and the Ki (PP Elastase) was 28 µM. For the same compound, the t1/2 plasma (Stability in plasma) was 0.417 h.

In the case of `CCOC(=O)C(=O)C(CC)NC(=O)C(CC(C)C)NS(=O)(=O)c1ccc2ccccc2c1` (stereo not drawn) [2-NapSO2 -Leu-Abu-COOEt], the “inhibition of Calpain within platelets” value (Calpain within platelets; 100 μM) is reported as “significant inhibition”.

In the case of `O=c1oc(Cl)c(Cl)c2ccccc12` [3,4-dichloroisocoumarin, reference compound], the “inhibition of spectrin proteolysis in crude brain extracts” value (shortened to “inhibition of spectrin proteolysis”) [1] is reported as “significant inhibition”.

For `O=c1oc(OCc2ccccc2)c(Cl)c2ccccc12` [3-benzyloxy-4-chloroisocoumarin], the “inhibition of spectrin proteolysis” value [1] was “significant inhibition”.

With `O=c1oc(Cl)cc2ccccc12` [3-chloroisocoumarin, reference compound] the “inhibition of spectrin proteolysis” value [1] was “significant inhibition” and the “inhibition of Calpain within platelets” value (Calpain within platelets; 100 μM) was “significant inhibition”.

For `N=C(N)SCCCOc1oc(=O)c2cc(NC(=O)CCc3ccccc3)ccc2c1Cl` [7-(3-phenylpropionylamino)-4-chloro-3-(3-isothiureidopropoxy)isocoumarin], the “inhibition of spectrin proteolysis” value [1] was “significant inhibition” and the “inhibition of Calpain within platelets” value (Calpain within platelets; 100 μM) was “significant inhibition”.

For `CCCOc1oc(=O)c2cc(NC(C)=O)ccc2c1Cl` [7-(acetylamino)-4-chloro-3-(propoxy)-isocoumarin], the “inhibition of spectrin proteolysis” value [1] was “significant inhibition”.

For `N=C(N)SCCCOc1oc(=O)c2cc(NC(=O)Cc3ccccc3)ccc2c1Cl` [7-(phenylacetylamino)-4-chloro-3-(3-isothiureidopropoxy)isocoumarin], the “inhibition of spectrin proteolysis” value [1] was “significant inhibition” and the “inhibition of Calpain within platelets” value (Calpain within platelets; 100 μM) was “significant inhibition”.

For `N=C(N)SCCOc1oc(=O)c2cc(NC(=O)Nc3ccccc3)ccc2c1Cl` [7-(phenylcarbamoylamino)-4-chloro-3-(2-isothiureidoethoxy)isocoumarin], the “inhibition of spectrin proteolysis” value [1] was “significant inhibition” and the “inhibition of Calpain within platelets” value (Calpain within platelets; 100 μM) was “significant inhibition”.

With `N=C(N)SCCCOc1oc(=O)c2cc(NC(=O)Nc3ccccc3)ccc2c1Cl` [7-(phenylcarbamoylamino)-4-chloro-3-(3-isothiureidopropoxy)isocoumarin] the “inhibition of spectrin proteolysis” value [1] was “significant inhibition” and the “inhibition of Calpain within platelets” value (Calpain within platelets; 100 μM) was “significant inhibition”.

In the case of `CC(=O)NC(C(=O)NC(Cc1ccccc1)C(=O)CCl)C(C)C` (stereo not drawn) [Ac-Val-Phe-CH2Cl] (Ac-Val-Phe-CH2Cl; configuration not given here), the “inhibition of spectrin proteolysis” value [1] is reported as “significant inhibition”.

Work on `CCOC(=O)C(=O)C(CC)NC(=O)C(CC(C)C)NC(=O)C(C)(C)c1ccccc1` (stereo not drawn) [Ph-(CH3)2 -CO-Leu-Abu-COOEt] yielded a Ki (Calpain II) of 1.2 µM.

In the case of `CC[C@H](NC(=O)[C@H](CC(C)C)NC(=O)OCc1ccccc1)C(=O)C(=O)NCCc1ccccc1` [Z-Leu-Abu-CONH-(CH2)2 -Ph, Z-Leu-Abu-CONH-(CH2)2 Ph], the Ki (Calpain II) is reported as 0.022 µM.

Compound `CCC(NC(=O)C(CC(C)C)NC(=O)OCc1ccccc1)C(=O)C(=O)NCCO` (stereo not drawn) [Z-Leu-Abu-CONH-(CH2)2 OH] has a Ki (Calpain II) of 0.078 µM.

For `CC[C@H](NC(=O)[C@H](CC(C)C)NC(=O)OCc1ccccc1)C(=O)C(=O)NCCCN1CCOCC1` [Z-Leu-Abu-CONH-(CH2)3 -Mpl, Z-Leu-Abu-CONH--(CH2)3 -N(CH2 CH2)2 O], the Ki (Calpain II) was 0.041 µM.

In the case of `CCCCCCCCNC(=O)C(=O)[C@H](CC)NC(=O)[C@H](CC(C)C)NC(=O)OCc1ccccc1` [Z-Leu-Abu-CONH-(CH2)7 CH3, Z-Leu-Abu-CONH--(CH2)7 CH3], the Ki (Calpain II) is reported as 0.019 µM.

Compound `CCC(NC(=O)C(CC(C)C)NC(=O)OCc1ccccc1)C(=O)C(=O)NCC(C)C` (stereo not drawn) [Z-Leu-Abu-CONHiBu, Z-Leu-Abu-CONH-iBu] has a Ki (Calpain II) of 0.14 µM, a Ki (Cathepsin B) of 4 µM and a Ki (Chym) greater than 300 µM. The Ki (PP Elastase) was 40 µM, the t1/2 plasma (Stability in plasma) was greater than 1 h and the IC50 (Calpain within platelets) was 28 µM.

Compound `CC[C@H](NC(=O)[C@H](CC(C)C)NC(=O)OCc1ccccc1)C(=O)C(=O)OCc1ccccc1` [Z-Leu-Abu-COOBz, Z-Leu-Abu-CO2 Bzl] has a Ki (Calpain I) of 9.5 µM, a Ki (Calpain II) of 0.47 µM and a Ki (Cathepsin B) of 4 µM. The Ki (Chym) was 40 µM, the Ki (PP Elastase) was greater than 100 µM and the “inhibition of Calpain within platelets” value (Calpain within platelets; 100 μM) was “significant inhibition”. The “platelet assay, semi-quantitative” value (Calpain within platelets; semi-quantitative, 100 μM) was “++”.

In the case of `CCOC(=O)C(=O)C(CC)NC(=O)C(CC(C)C)NC(=O)C(CC(C)C)NC(=O)OCc1ccccc1` (stereo not drawn) [Z-Leu-Leu-Abu-COOEt], the Ki (Calpain II) is reported as 2.6 µM, the Ki (Cathepsin B) is reported as 22 µM and the Ki (Chym) is reported as greater than 100 µM. For the same compound, the Ki (PP Elastase) was 25 µM, the “inhibition of Calpain within platelets” value (Calpain within platelets; 100 μM) was “significant inhibition” and the IC50 (Calpain within platelets) was 40 µM.

`CC(C)C[C@H](NC(=O)OCc1ccccc1)C(=O)N[C@@H](Cc1ccccc1)C(=O)C(=O)NCCc1ccccc1` [Z-Leu-Phe-CONH(CH2)2 Ph, Z-Leu-Phe-CONH-(CH2)2 Ph] gave a Ki (Calpain II) of 0.024 µM, a Ki (Chym) of 2 µM and a t1/2 plasma (Stability in plasma) greater than 1 h. The IC50 (Calpain within platelets) was 3 µM.

In the case of `CC(C)C[C@H](NC(=O)OCc1ccccc1)C(=O)N[C@@H](Cc1ccccc1)C(=O)C(=O)NCc1ccccc1` [Z-Leu-Phe-CONHBz, Z-Leu-Phe-CONH-Bzl], the Ki (Calpain II) is reported as 0.046 µM.

For `CC(C)CNC(=O)C(=O)[C@H](Cc1ccccc1)NC(=O)[C@H](CC(C)C)NC(=O)OCc1ccccc1` [Z-Leu-Phe-CONHiBu, Z-Leu-Phe-CONH-iBu], the Ki (Calpain II) was 0.065 µM, the Ki (Cathepsin B) was 4 µM and the Ki (Chym) was 24 µM. For the same compound, the t1/2 plasma (Stability in plasma) was greater than 1 h and the IC50 (Calpain within platelets) was 22 µM.

For Z-Leu-Abu, the “inhibition of Calpain within platelets” value (Calpain within platelets; 100 μM) was “significant inhibition”.
